Measurements as given in PubChem BioAssay AID248 (DTP/NCI, 2004).
Several values for one entry are separate records, joined by “and”; a condition that tells them apart may be missing. Equal values may be shown once. Toxic doses and inconclusive results are not listed. Rule as the data show it: active = T/C of 150% or more; inactive = T/C below 125%.

System: L1210 leukemia ip in BDF1 mice, survival T/C
Experiment: NCI In Vivo Anticancer Drug Screen. Data for tumor model L1210 Leukemia (intraperitoneal) in B6D2F1 (BDF1) mice
Settings: endpoint: mean survival time, higher = longer survival
Method in brief: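 Antitumor effect is assessed in tumor-bearing animals. Survival in the compound arm is compared with a vehicle-dosed control arm and expressed as their quotient.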

[1] = dose: 100.0 mg/kg/injection, schedule: Q04DX002 (ip), vehicle: Klucel (hydroxypropylcellulose) (HPC)
[2] = dose: 200.0 mg/kg/injection, schedule: Q04DX002 (ip), vehicle: Klucel (hydroxypropylcellulose) (HPC)
[3] = dose: 400.0 mg/kg/injection, schedule: Q04DX002 (ip), vehicle: Klucel (hydroxypropylcellulose) (HPC)
[4] = dose: 100.0 mg/kg/injection, schedule: Q04DX003 (ip), vehicle: acetone
[5] = dose: 200.0 mg/kg/injection, schedule: Q04DX003 (ip), vehicle: acetone
[6] = dose: 400.0 mg/kg/injection, schedule: Q04DX003 (ip), vehicle: acetone
[7] = dose: 100.0 mg/kg/injection, schedule: Q01DX009 (ip), vehicle: Klucel (hydroxypropylcellulose) (HPC)
[8] = dose: 200.0 mg/kg/injection, schedule: Q01DX009 (ip), vehicle: Klucel (hydroxypropylcellulose) (HPC)
[9] = dose: 400.0 mg/kg/injection, schedule: Q01DX009 (ip), vehicle: Klucel (hydroxypropylcellulose) (HPC)

Measured: T/C

CC#CC(=O)O
inactive: dose: 6.25 mg/kg/injection, schedule: Q01DX009 (ip), vehicle: saline 106 % of control | dose: 12.5 mg/kg/injection, schedule: Q01DX009 (ip), vehicle: saline 106 % of control | dose: 25.0 mg/kg/injection, schedule: Q01DX005 (ip), vehicle: saline 104 % of control | dose: 25.0 mg/kg/injection, schedule: Q01DX009 (ip), vehicle: saline 98 % of control and 100 % of control | dose: 25.0 mg/kg/injection, schedule: Q04DX002 (ip), vehicle: saline 95 % of control | dose: 50.0 mg/kg/injection, schedule: Q01DX005 (ip), vehicle: saline 97 % of control | dose: 50.0 mg/kg/injection, schedule: Q04DX002 (ip), vehicle: saline 102 % of control | dose: 100.0 mg/kg/injection, schedule: Q01DX005 (ip), vehicle: saline 93 % of control | dose: 100.0 mg/kg/injection, schedule: Q04DX002 (ip), vehicle: saline 104 % of control

CCCCCCCCCCCCCCCCCCNC(=O)Nc1ccc(OC)cc1
inactive: [1] 93 % of control | [2] 104 % of control | [3] 93 % of control

COC1OC2COC(c3ccccc3)OC2C(OC)C1O (centres undefined)
inactive: dose: 12.5 mg/kg/injection, schedule: Q04DX002 (ip), vehicle: Klucel (hydroxypropylcellulose) (HPC) 103 % of control | dose: 25.0 mg/kg/injection, schedule: Q04DX002 (ip), vehicle: Klucel (hydroxypropylcellulose) (HPC) 100 % of control | dose: 50.0 mg/kg/injection, schedule: Q04DX002 (ip), vehicle: Klucel (hydroxypropylcellulose) (HPC) 100 % of control

CC(C)n1c2c([n+](C)c1/C=C/c1ccccc1)C(=O)c1ccccc1C2=O
inactive: dose: 1.0 mg/kg/injection, schedule: Q01DX009 (ip), vehicle: Klucel (hydroxypropylcellulose) (HPC) 106 % of control | dose: 1.0 mg/kg/injection, schedule: Q04DX003 (ip), vehicle: Klucel (hydroxypropylcellulose) (HPC) 107 % of control | dose: 2.0 mg/kg/injection, schedule: Q01DX009 (ip), vehicle: Klucel (hydroxypropylcellulose) (HPC) 101 % of control | dose: 2.0 mg/kg/injection, schedule: Q04DX003 (ip), vehicle: Klucel (hydroxypropylcellulose) (HPC) 96 % of control | dose: 4.0 mg/kg/injection, schedule: Q04DX003 (ip), vehicle: Klucel (hydroxypropylcellulose) (HPC) 86 % of control | dose: 5.0 mg/kg/injection, schedule: Q01DX001 (ip), vehicle: saline 103 % of control

CCCCCC(C)(C)O
inactive: dose: 100.0 mg/kg/injection, schedule: Q01DX001 (ip), vehicle: saline 96 % of control | dose: 100.0 mg/kg/injection, schedule: Q01DX009 (ip), vehicle: saline 97 % of control | dose: 187.0 mg/kg/injection, schedule: Q01DX001 (ip), vehicle: saline 103 % of control | dose: 200.0 mg/kg/injection, schedule: Q01DX001 (ip), vehicle: saline 98 % of control | dose: 200.0 mg/kg/injection, schedule: Q01DX009 (ip), vehicle: saline 101 % of control | dose: 267.0 mg/kg/injection, schedule: Q01DX001 (ip), vehicle: saline 97 % of control | dose: 600.0 mg/kg/injection, schedule: Q01DX001 (ip), vehicle: saline 92 % of control

COCCCNP(=O)(OC)OC
inactive: dose: 100.0 mg/kg/injection, schedule: Q01DX001 (ip), vehicle: acetone 98 % of control | [4] 98 % of control | dose: 200.0 mg/kg/injection, schedule: Q01DX001 (ip), vehicle: acetone 112 % of control | [5] 100 % of control | dose: 400.0 mg/kg/injection, schedule: Q01DX001 (ip), vehicle: acetone 105 % of control | [6] 95 % of control

NCc1ccc[n+]([O-])c1
inactive: dose: 12.5 mg/kg/injection, schedule: Q04DX002 (ip), vehicle: saline with Tween-80 97 % of control | dose: 25.0 mg/kg/injection, schedule: Q04DX002 (ip), vehicle: saline with Tween-80 105 % of control | dose: 50.0 mg/kg/injection, schedule: Q04DX002 (ip), vehicle: saline with Tween-80 102 % of control and 118 % of control | dose: 200.0 mg/kg/injection, schedule: Q04DX002 (ip), vehicle: saline with Tween-80 89 % of control

O=C(O)CN1C(=O)c2cccc([N+](=O)[O-])c2C1=O
inactive: [7] 100 % of control | [8] 100 % of control | [9] 101 % of control

O=c1c2ccccc2[nH]c(=S)n1-c1cccc(C(F)(F)F)c1
inactive: [7] 100 % of control | [8] 97 % of control | [9] 96 % of control

Cc1c2oc3c(C)c(N)cc(C(=O)NC4C(=O)NC(C(C)C)C(=O)N5CCCC5C(=O)N(C)CC(=O)N(C)C(C(C)C)C(=O)OC4C)c3nc-2c(C(=O)NC2C(=O)NC(C(C)C)C(=O)N3CCCC3C(=O)N(C)CC(=O)N(C)C(C(C)C)C(=O)OC2C)c(N)c1=O (centres undefined)
inactive: dose: 75.0 micrograms/kg/injection, schedule: Q01DX009 (ip), vehicle: saline + alcohol 121 % of control | dose: 150.0 micrograms/kg/injection, schedule: Q01DX009 (ip), vehicle: saline + alcohol 113 % of control | dose: 200.0 micrograms/kg/injection, schedule: Q01DX009 (ip), vehicle: saline + alcohol 102 % of control | dose: 300.0 micrograms/kg/injection, schedule: Q01DX009 (ip), vehicle: saline + alcohol 90 % of control | dose: 300.0 micrograms/kg/injection, schedule: Q04DX003 (ip), vehicle: saline + alcohol 119 % of control | dose: 800.0 micrograms/kg/injection, schedule: Q04DX003 (ip), vehicle: saline + alcohol 106 % of control | dose: 1200.0 micrograms/kg/injection, schedule: Q04DX003 (ip), vehicle: saline + alcohol 87 % of control

CCCCCCC(=O)/C=C/c1ccc(Cl)c(Cl)c1
inactive: dose: 100.0 mg/kg/injection, schedule: Q01DX009 (ip), vehicle: acetone 92 % of control | [4] 101 % of control | dose: 200.0 mg/kg/injection, schedule: Q01DX009 (ip), vehicle: acetone 92 % of control | [5] 93 % of control | [6] 98 % of control

CCCCN(CCCC)C(=O)c1[nH]cnc1/N=N\N(C)C
inactive: dose: 50.0 mg/kg/injection, schedule: Q01DX009 (ip), vehicle: saline with Tween-80 117 % of control | dose: 100.0 mg/kg/injection, schedule: Q01DX001 (ip), vehicle: saline with Tween-80 106 % of control | dose: 100.0 mg/kg/injection, schedule: Q01DX009 (ip), vehicle: saline with Tween-80 108 % of control | dose: 200.0 mg/kg/injection, schedule: Q01DX001 (ip), vehicle: saline with Tween-80 118 % of control

COc1ccccc1NC(=O)NCc1cccc2ccccc12
inactive: [1] 107 % of control | [2] 104 % of control | [3] 100 % of control

CCN(CC)CC(=O)NCC(CCN1CCOCC1)c1cccc2ccccc12 (centres undefined)
inactive: dose: 100.0 mg/kg/injection, schedule: Q04DX003 (ip), vehicle: saline 96 % of control | dose: 200.0 mg/kg/injection, schedule: Q04DX003 (ip), vehicle: saline 100 % of control | dose: 400.0 mg/kg/injection, schedule: Q04DX003 (ip), vehicle: saline 93 % of control

N#Cc1cccc(C(Br)S(=O)(=O)c2ccccc2)c1 (centres undefined)
inactive: [1] 116 % of control | [2] 111 % of control | [3] 90 % of control

S=c1sc2ccccc2n1CCNc1ccccc1
inactive: dose: 50.0 mg/kg/injection, schedule: Q01DX001 (ip), vehicle: carboxymethylcellulose (CMC) 96 % of control | dose: 100.0 mg/kg/injection, schedule: Q01DX001 (ip), vehicle: carboxymethylcellulose (CMC) 100 % of control | dose: 200.0 mg/kg/injection, schedule: Q01DX001 (ip), vehicle: carboxymethylcellulose (CMC) 100 % of control | dose: 400.0 mg/kg/injection, schedule: Q01DX001 (ip), vehicle: carboxymethylcellulose (CMC) 89 % of control

O=P(N=C=S)(N=C=S)N=C=S
inactive: dose: 75.0 mg/kg/injection, schedule: Q01DX001 (ip), vehicle: other 114 % of control
